Test results published in PubChem BioAssay (NCI).
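Each compound was tested at five concentrations against cells in 96-well plates for 48 hours. TGI marks complete inhibition of growth.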

What was measured:
Experiment in all cases: NCI tumour cell line growth inhibition, 48 h
CCRF-CEM leukemia = tested on: CCRF-CEM leukemia
NCI/ADR-RES ovarian = tested on: NCI/ADR-RES ovarian
SK-MEL-28 melanoma = tested on: SK-MEL-28 melanoma
PC-3 prostate = tested on: PC-3 prostate
HL-60(TB) leukemia = tested on: HL-60(TB) leukemia
UO-31 renal = tested on: UO-31 renal
COLO 205 colon = tested on: COLO 205 colon
MDA-MB-435 = tested on: MDA-MB-435
A498 renal = tested on: A498 renal
SNB-75 CNS = tested on: SNB-75 CNS
SF-539 CNS = tested on: SF-539 CNS
CAKI-1 renal = tested on: CAKI-1 renal
OVCAR-5 ovarian = tested on: OVCAR-5 ovarian
HOP-62 NSCLC = tested on: HOP-62 NSCLC
MDA-MB-231 breast = tested on: MDA-MB-231 breast
MCF7 breast = tested on: MCF7 breast
SK-MEL-2 melanoma = tested on: SK-MEL-2 melanoma
OVCAR-3 ovarian = tested on: OVCAR-3 ovarian
786-0 renal = tested on: 786-0 renal
NCI-H522 lung = tested on: NCI-H522 lung
KM12 colon = tested on: KM12 colon
UACC-257 melanoma = tested on: UACC-257 melanoma
SN12C renal = tested on: SN12C renal
U251 CNS = tested on: U251 CNS
HCC-2998 colon = tested on: HCC-2998 colon
SF-268 CNS = tested on: SF-268 CNS
SK-OV-3 ovarian = tested on: SK-OV-3 ovarian
HT29 colon = tested on: HT29 colon
M14 melanoma = tested on: M14 melanoma
EKVX NSCLC = tested on: EKVX NSCLC
NCI-H226 lung = tested on: NCI-H226 lung
HCT-116 colon = tested on: HCT-116 colon
SF-295 CNS = tested on: SF-295 CNS
T-47D breast = tested on: T-47D breast
SR leukemia = tested on: SR leukemia
MOLT-4 leukemia = tested on: MOLT-4 leukemia
SK-MEL-5 melanoma = tested on: SK-MEL-5 melanoma
A549 NSCLC = tested on: A549 NSCLC
HCT-15 colon = tested on: HCT-15 colon
MALME-3M melanoma = tested on: MALME-3M melanoma
HS 578T breast = tested on: HS 578T breast
ACHN renal = tested on: ACHN renal
MDA-N = tested on: MDA-N
NCI-H23 lung = tested on: NCI-H23 lung
SW-620 colon = tested on: SW-620 colon
HOP-92 NSCLC = tested on: HOP-92 NSCLC
DU-145 prostate = tested on: DU-145 prostate
NCI-H460 lung = tested on: NCI-H460 lung
UACC-62 melanoma = tested on: UACC-62 melanoma
OVCAR-4 ovarian = tested on: OVCAR-4 ovarian
BT-549 breast = tested on: BT-549 breast
OVCAR-8 ovarian = tested on: OVCAR-8 ovarian
K-562 leukemia = tested on: K-562 leukemia
TK-10 renal = tested on: TK-10 renal
SNB-19 CNS = tested on: SNB-19 CNS
RPMI-8226 leukemia = tested on: RPMI-8226 leukemia
IGROV1 ovarian = tested on: IGROV1 ovarian
RXF 393 renal = tested on: RXF 393 renal
LOX IMVI melanoma = tested on: LOX IMVI melanoma

## O=C(c1cccs1)N(C(=O)N1CCN(c2ccccc2)CC1)S(=O)(=O)c1ccccc1
CCRF-CEM leukemia
  TGI: > 100 µM
NCI/ADR-RES ovarian
  TGI: 57.2 µM
SK-MEL-28 melanoma
  TGI: 56.3 µM
PC-3 prostate
  TGI: 94.6 µM
HL-60(TB) leukemia
  TGI: 45 µM
UO-31 renal
  TGI: 40.8 µM
COLO 205 colon
  TGI: 30.1 µM
MDA-MB-435
  TGI: 70.6 µM
A498 renal
  TGI: > 100 µM
SNB-75 CNS
  TGI: 61.2 µM
SF-539 CNS
  TGI: 35.2 µM
CAKI-1 renal
  TGI: 59.9 µM
OVCAR-5 ovarian
  TGI: 55.7 µM
HOP-62 NSCLC
  TGI: > 100 µM
MDA-MB-231 breast
  TGI: 51.6 µM
MCF7 breast
  TGI: 74.6 µM
SK-MEL-2 melanoma
  TGI: 36.3 µM
OVCAR-3 ovarian
  TGI: > 100 µM
786-0 renal
  TGI: 59.4 µM
NCI-H522 lung
  TGI: 34.2 µM
KM12 colon
  TGI: > 100 µM
UACC-257 melanoma
  TGI: 69.9 µM
SN12C renal
  TGI: 35.1 µM
U251 CNS
  TGI: 33.3 µM
HCC-2998 colon
  TGI: > 100 µM
SF-268 CNS
  TGI: 80.6 µM
SK-OV-3 ovarian
  TGI: > 100 µM
HT29 colon
  TGI: > 100 µM
M14 melanoma
  TGI: 36 µM
EKVX NSCLC
  TGI: 42.3 µM
NCI-H226 lung
  TGI: 53.8 µM
HCT-116 colon
  TGI: 38.6 µM
SF-295 CNS
  TGI: > 100 µM
T-47D breast
  TGI: 40.4 µM
SR leukemia
  TGI: 49.3 µM
MOLT-4 leukemia
  TGI: 49.8 µM
SK-MEL-5 melanoma
  TGI: 30.7 µM
A549 NSCLC
  TGI: 98.4 µM
HCT-15 colon
  TGI: 75.4 µM
MALME-3M melanoma
  TGI: 42.1 µM
HS 578T breast
  TGI: 65.9 µM
ACHN renal
  TGI: 39.9 µM
MDA-N
  TGI: 41.8 µM
NCI-H23 lung
  TGI: 59.5 µM
SW-620 colon
  TGI: > 100 µM
HOP-92 NSCLC
  TGI: 55.6 µM
DU-145 prostate
  TGI: 60.9 µM
NCI-H460 lung
  TGI: 97.3 µM
UACC-62 melanoma
  TGI: 33.8 µM
OVCAR-4 ovarian
  TGI: > 100 µM
BT-549 breast
  TGI: 84 µM
OVCAR-8 ovarian
  TGI: 39.5 µM
K-562 leukemia
  TGI: 80.5 µM
TK-10 renal
  TGI: > 100 µM
SNB-19 CNS
  TGI: 72.2 µM

## [N-]=[N+]=Nc1cc(=O)[nH]nc1-c1ccccc1
CCRF-CEM leukemia
  TGI: > 100 µM
NCI/ADR-RES ovarian
  TGI: > 100 µM
RPMI-8226 leukemia
  TGI: > 100 µM
SK-MEL-28 melanoma
  TGI: > 100 µM
PC-3 prostate
  TGI: > 100 µM
HL-60(TB) leukemia
  TGI: > 100 µM
UO-31 renal
  TGI: > 100 µM
COLO 205 colon
  TGI: > 100 µM
MDA-MB-435
  TGI: > 100 µM
A498 renal
  TGI: > 100 µM
SNB-75 CNS
  TGI: > 100 µM
IGROV1 ovarian
  TGI: > 100 µM
SF-539 CNS
  TGI: > 100 µM
HOP-62 NSCLC
  TGI: > 100 µM
MDA-MB-231 breast
  TGI: > 100 µM
MCF7 breast
  TGI: > 100 µM
OVCAR-3 ovarian
  TGI: > 100 µM
786-0 renal
  TGI: > 100 µM
NCI-H522 lung
  TGI: > 100 µM
KM12 colon
  TGI: > 100 µM
UACC-257 melanoma
  TGI: > 100 µM
SN12C renal
  TGI: > 100 µM
U251 CNS
  TGI: > 100 µM
RXF 393 renal
  TGI: > 100 µM
HCC-2998 colon
  TGI: > 100 µM
SF-268 CNS
  TGI: > 100 µM
SK-OV-3 ovarian
  TGI: > 100 µM
HT29 colon
  TGI: > 100 µM
M14 melanoma
  TGI: > 100 µM
EKVX NSCLC
  TGI: > 100 µM
NCI-H226 lung
  TGI: > 100 µM
HCT-116 colon
  TGI: > 100 µM
SF-295 CNS
  TGI: > 100 µM
T-47D breast
  TGI: > 100 µM
SR leukemia
  TGI: > 100 µM
MOLT-4 leukemia
  TGI: > 100 µM
A549 NSCLC
  TGI: > 100 µM
HCT-15 colon
  TGI: > 100 µM
MALME-3M melanoma
  TGI: > 100 µM
HS 578T breast
  TGI: > 100 µM
ACHN renal
  TGI: > 100 µM
MDA-N
  TGI: > 100 µM
NCI-H23 lung
  TGI: > 100 µM
SW-620 colon
  TGI: > 100 µM
HOP-92 NSCLC
  TGI: > 100 µM
DU-145 prostate
  TGI: > 100 µM
NCI-H460 lung
  TGI: > 100 µM
UACC-62 melanoma
  TGI: > 100 µM
OVCAR-4 ovarian
  TGI: > 100 µM
BT-549 breast
  TGI: > 100 µM
OVCAR-8 ovarian
  TGI: > 100 µM
K-562 leukemia
  TGI: > 100 µM
TK-10 renal
  TGI: > 100 µM
LOX IMVI melanoma
  TGI: > 100 µM
